pIC50: −log10 of the molar value.
Key:
MMP-3 [1] = biological target: T1, MMP-3 (Homo sapiens, UniProt P08254); experiment: Secondary P218 Quenched fluorescence Assay for MMP-3 Inhibition; format: biochemical; conditions: P218 substrate, pH 6.5, 25° C.; x (n) = average of n determinations; read-out: MMP-3 Fluorogenic IC50
T1 construct: Truncated Prostromelysin-257 was expressed in a soluble form in E.coli; made in house; host or cells: E. coli
Experimental: Truncated Prostromelysin-257 was expressed in a soluble form in E.coli as described by Marcy et al., Biochemistry, 30, 6476-6483, 1991. Soluble truncated prostromelysin was purified by a modification of the monoclonal antibody affinity chromatography method described by Housley et al., J. Biol. Chem., 268, 4481-87, 1993.
The assay is run continuously in a 3.0 ml cuvette using a Perkin-Elmer LS 50 B Spectrofluorimeter at 25° C. in a final volume of 2.0 mls. P218 substrate (10 mM) in 100% DMSO is diluted to a final concentration of 2.0 micromolar (μM) into assay buffer: 50 mM MES, pH 6.5 containing 150 mM NaCl, 10 mM CaCl2, 0.005% Brij-35, and 1%(v/v) DMSO. Test compounds(10 mM) in DMSO are diluted in assay buffer at an initial concentration of 10 to 100 micromolar. […] The reaction is initiated by the addition of recombinant stromelysin (MMP-3) at a final concentration of 1.0 nM. Upon peptide cleavage, the fluorescent MCA group was detected using an excitation wavelength of 328 nanometers and an emission wavelength of 393 nanometers.

MMP = MMP inhibitory activity, comparison in words; format: biochemical
MMP-3 [2] = biological target: T1, MMP-3; experiment: Primary Thiopeptilide MMP-3 Inhibition Assay; format: biochemical; conditions: pH 6.5; 13 nM stromelysin; x (n) = average of n determinations; read-out: MMP-3 Thiopep. IC50
Experimental: Enzyme: recombinant stromelysin expressed in E.coli and purified as described above. […] The protocols for the assay of compounds as stromelysin inhibitors was the same as that used for MMP-9 except that the assay buffer was 50 mM MES, pH 6.5 containing 150 mM NaCl, 10 mM CaCl2, 0.005% Brij, and 1% DMSO.

[3] = test system: human ovarian carcinoma xenografts; conditions: mouse, in vivo; cited from earlier work
human colon tumor = conditions: intraperitoneally; cited from earlier work
MMP-3 [4] = biological target: T1, MMP-3; experiment: Automated MMP Profiling Assay, MMP-3 fluorogenic; format: biochemical; conditions: 96-well automated, P218
Source text: This assay with each invention compound was run with the three enzymes MMP-3, MMP-9 and MMP-2 in parallel as adapted for a 96-well microtitre plate using a Hamilton A® workstation.

Femoral Lesion = experiment: Inhibition of Cartilage Lesions in a Guinea Pig Model of Osteoarthritis; format: in vivo; conditions: 15 mg/kg oral gavage daily, 33 days, vs vehicle
Experimental: Pathol. 1987 24, 444-448. Seven of the invention compounds were dissolved at 15 mg/ml in a vehicle of 10 mg/ml Tween 80, 190 mg/ml PEG and 0.44 mg/ml ethanolamine. This concentrate was diluted 1:1 with water before dosing (final concentration 7.5 mg/ml). On the 5th day before surgery, each animal received either a test compound plus vehicle or vehicle only administered by oral gavage each day at 15 mg/kg (2 ml/kg) up to surgery and then for four weeks post surgery (total 33 days of dosing). At the beginning of dosing and twice weekly thereafter the animals were weighed and the dose of the respective compounds or vehicles were calculated and adjusted if necessary. At the conclusion of the study the animals were euthanized by CO2 asphyxiation and their stifles removed, partially dissected and placed in 10% neutral buffered formalin. The extent of lesion development on the femoral head was measured by computer assisted surface area analysis.

MMP-2 [5] = biological target: T2, MMP-2 (Homo sapiens, UniProt P08253); experiment: Automated MMP Profiling Assay, MMP-2 fluorogenic; format: biochemical; conditions: 96-well automated, P218; read-out: MMP-2 Fluorogenic IC50 (profiling)
T2 sequence (P08253 110-660): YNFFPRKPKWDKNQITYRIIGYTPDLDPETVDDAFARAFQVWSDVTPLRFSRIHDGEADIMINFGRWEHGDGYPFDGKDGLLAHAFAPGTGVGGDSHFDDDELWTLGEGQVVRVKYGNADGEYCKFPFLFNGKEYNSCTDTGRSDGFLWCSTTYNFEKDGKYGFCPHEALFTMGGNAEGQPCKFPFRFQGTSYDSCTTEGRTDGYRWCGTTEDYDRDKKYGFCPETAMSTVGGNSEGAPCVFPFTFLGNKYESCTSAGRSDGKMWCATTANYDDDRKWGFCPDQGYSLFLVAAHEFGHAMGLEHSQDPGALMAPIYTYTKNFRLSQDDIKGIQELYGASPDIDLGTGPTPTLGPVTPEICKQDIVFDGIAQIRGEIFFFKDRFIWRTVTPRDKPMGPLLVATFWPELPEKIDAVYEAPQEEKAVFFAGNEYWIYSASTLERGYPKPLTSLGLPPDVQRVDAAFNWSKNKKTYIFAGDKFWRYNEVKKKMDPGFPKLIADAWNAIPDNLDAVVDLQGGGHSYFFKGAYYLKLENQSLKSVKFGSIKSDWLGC

MMP-9 [6] = biological target: T3, MMP-9 (Homo sapiens, UniProt P14780); experiment: Automated MMP Profiling Assay, MMP-9 fluorogenic; format: biochemical; conditions: 96-well automated, P218
T3 construct: from tissue; host or cells: human polymorphonuclear leukocytes (PMN) from whole blood (New York Blood Center), PMA-stimulated supernatant
T3 sequence (P14780 107-707 limits assumed): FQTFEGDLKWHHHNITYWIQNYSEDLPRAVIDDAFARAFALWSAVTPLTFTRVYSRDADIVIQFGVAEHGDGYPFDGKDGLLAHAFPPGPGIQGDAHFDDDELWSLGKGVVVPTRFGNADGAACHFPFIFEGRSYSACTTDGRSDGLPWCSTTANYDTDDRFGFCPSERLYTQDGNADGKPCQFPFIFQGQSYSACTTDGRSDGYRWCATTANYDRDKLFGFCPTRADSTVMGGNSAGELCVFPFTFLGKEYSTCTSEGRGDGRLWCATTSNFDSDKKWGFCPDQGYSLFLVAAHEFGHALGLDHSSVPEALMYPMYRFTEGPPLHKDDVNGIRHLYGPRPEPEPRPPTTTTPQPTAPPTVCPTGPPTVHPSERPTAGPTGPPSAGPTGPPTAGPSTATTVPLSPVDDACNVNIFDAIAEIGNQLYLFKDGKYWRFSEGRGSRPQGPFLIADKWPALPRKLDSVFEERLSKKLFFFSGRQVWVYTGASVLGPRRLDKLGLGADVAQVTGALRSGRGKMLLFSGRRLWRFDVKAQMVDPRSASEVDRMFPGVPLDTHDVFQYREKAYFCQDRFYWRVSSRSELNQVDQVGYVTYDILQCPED

MMP-9 [7] = biological target: T3, MMP-9; experiment: Thiopeptilide MMP-9 Inhibition Assay; format: biochemical
MMP-2 [8] = biological target: T2, MMP-2; experiment: Secondary P218 Quenched fluorescence Assay for MMP-2 Inhibition; format: biochemical; conditions: P218 substrate, 0.2 nM enzyme; x (n) = average of n determinations; read-out: MMP-2 Fluorogenic IC50
inflammation = conditions: R. G. Child et al. 1977; cited from earlier work

T1 sequence (P08254 100-274 limits assumed): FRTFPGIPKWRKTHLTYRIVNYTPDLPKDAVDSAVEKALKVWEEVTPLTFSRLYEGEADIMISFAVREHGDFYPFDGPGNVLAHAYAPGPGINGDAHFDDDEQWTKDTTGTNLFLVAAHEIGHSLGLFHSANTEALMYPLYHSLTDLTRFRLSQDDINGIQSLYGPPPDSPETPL

Compound | pIC50 (MMP-3 [4]) | % Inhibition of Femoral Lesion Surface Area (Femoral Lesion) [%] | pIC50 (MMP-2 [5]) | pIC50 (MMP-9 [6]) | also measured
O=C(CC(CCCc1ccccc1)C(=O)O)c1ccc(-c2ccccc2)cc1 (stereo not drawn) [Example 135] | – | – | – | – | pIC50 (MMP-3 [1]): 5.55; MMP inhibitory activity (in words) (MMP): low potency; pIC50 (MMP-3 [2]): 5.55
CNC(=O)[C@H](Cc1ccccc1)NC(=O)[C@H](CC(C)C)[C@H](CSc1cccs1)C(=O)NO [batimastat] | – | – | – | – | survival of mice bearing human ovarian carcinoma xenografts [3]: prolongs the survival; human colon tumor growth and spread (human colon tumor): inhibits human colon tumor growth and spread
COC(=O)c1ccccc1S[C@H]1CC[C@H](C(=O)c2ccc(-c3ccc(Cl)cc3)cc2)[C@H]1C(=O)O [Example 299, (1S,2S,5S)-trans-5-[4-(4-chlorophenyl)phenylcarbonyl]-cis-2-(2-methoxycarbonylphenylthio)cyclopentanecarboxylic acid] | 7.24 | 28 | 7.28 | 6.27 | –
O=C(O)CCC(=O)c1ccc(-c2ccccc2)cc1 [fenbufen, 3-biphenoylpropanoic acid, reference compound] | – | – | – | – | inhibition at 5 µM (MMP-9 [7]; read-out: MMP-9: Thiopep. % inhibition): 2%; pIC50 (MMP-2 [8]): 6.00; MMP inhibitory activity (in words) (MMP): Only minor activity, at best
O=C(O)CC(C(=O)c1ccc(-c2ccccc2)cc1)c1ccccc1 (stereo not drawn) [LXXVII] | – | – | – | – | anti-inflammatory activity (literature) (inflammation): inactive
CCN(CC)C(=O)c1cccc(CC[C@@H](CC(=O)c2ccc(-c3ccc(Cl)cc3)cc2)C(=O)O)c1 [Example 145, 4-[4-(4-chlorophenyl)phenyl]-4-oxo-2S-[2-(3-N,N-diethylcarbamoyl)phenyl]butanoic acid] | 8.12 | 46.4 | 8.68 | 7.72 | –
O=C(CC(C(=O)O)c1ccccc1)c1ccc(-c2ccccc2)cc1 (stereo not drawn) [XLIV] | – | – | – | – | anti-inflammatory activity (literature) (inflammation): inactive
CCCCCOc1ccc(-c2ccc(C(=O)C[C@H](CCCc3ccccc3)C(=O)O)cc2)cc1 [Example 86, 4-[4-(4-pentyloxyphenyl)phenyl]-4-oxo-2S-(3-phenylpropyl)butanoic acid] | 7.29 | 0 | 7.90 | 6.35 | –
CC(CC(=O)c1ccc(-c2ccccc2)cc1)C(=O)O (stereo not drawn) [XLVIII] | – | – | – | – | anti-inflammatory activity (literature) (inflammation): inactive
O=C(C[C@H](CCCc1ccccc1)C(=O)O)c1ccc(-c2ccc(Cl)cc2)cc1 [Example 116, 4-[4-(4-chlorophenyl)phenyl]-4-oxo-2S-(3-phenylpropyl)butanoic acid] | 6.86 | 0 | 7.42 | 6.73 | –
O=C(C[C@H](CSc1ccccc1)C(=O)O)c1ccc(-c2ccc(Cl)cc2)cc1 [Example 197, 4-[4-(4-chlorophenyl)phenyl]-4-oxo-2S-(phenylthiomethyl)butanoic acid] | – | 18 | 7.66 | – | pIC50 (MMP-9 [7]; pH 6.5, x (n) = average of n determinations, read-out: MMP-9: Thiopep. IC50): 6.71; pIC50 (MMP-2 [8]): 7.59
O=C(O)[C@@H]1[C@@H](C(=O)c2ccc(-c3ccc(Cl)cc3)cc2)CC[C@H]1Sc1ccccc1 [Example 296, (1S,2R,5S)-trans-5-[4-(4-chlorophenyl)phenylcarbonyl]-trans-2-phenylthiocyclopentanecarboxylic acid] | 7.36 | 31 | 8.19 | 6.95 | –
O=C(C[C@H](CCN1C(=O)c2ccccc2C1=O)C(=O)O)c1ccc(-c2ccc(Cl)cc2)cc1 [Example 268, 4-[4-(4-chlorophenyl)phenyl]-4-oxo-2S-(2-phthalimidoethyl)butanoic acid] | 8.24 | 53 | 9.04 | 8.94 | MMP inhibitory activity (in words) (MMP): most active
O=C(C[C@@H](CCN1C(=O)c2ccccc2C1=O)C(=O)O)c1ccc(-c2ccc(Cl)cc2)cc1 [Example 269, 4-[4-(4-chlorophenyl)phenyl]-4-oxo-2R-(2-phthalimidoethyl)butanoic acid] | 5.99 | – | 6.78 | 6.71 | MMP inhibitory activity (in words) (MMP): less active
O=C(C[C@H](CCCc1ccccc1)C(=O)O)c1ccc(-c2ccc(OCc3ccccc3)cc2)cc1 [Example 100, 4-[4-(4-benzyloxyphenyl)phenyl]-4-oxo-2S-(3-phenylpropyl)butanoic acid] | 7.77 | 37.8 | 7.85 | 5.49 | –

Reference: US5789434A, “Derivatives of substituted 4-biarylbutyric acid as matrix metalloprotease inhibitors” (priority 1995, dated 1998)
